This note sets out measurements from article PMC2464581, “Pichia stipitis xylose reductase helps detoxifying lignocellulosic hydrolysate by reducing 5-hydroxymethyl-furfural (HMF)” (Biotechnology for Biofuels, 2008).

The target of data set [1] is T1, Pichia stipitis xylose reductase (Ps-XR) (Scheffersomyces stipitis, UniProt P31867).
T1 construct: gene XYL1; XYL1 gene product overproduced in S. cerevisiae TMB3260 (PGK1p-XYL1); purified by Red-Sepharose and gel filtration; no tag mentioned
T1 sequence (P31867 1-318): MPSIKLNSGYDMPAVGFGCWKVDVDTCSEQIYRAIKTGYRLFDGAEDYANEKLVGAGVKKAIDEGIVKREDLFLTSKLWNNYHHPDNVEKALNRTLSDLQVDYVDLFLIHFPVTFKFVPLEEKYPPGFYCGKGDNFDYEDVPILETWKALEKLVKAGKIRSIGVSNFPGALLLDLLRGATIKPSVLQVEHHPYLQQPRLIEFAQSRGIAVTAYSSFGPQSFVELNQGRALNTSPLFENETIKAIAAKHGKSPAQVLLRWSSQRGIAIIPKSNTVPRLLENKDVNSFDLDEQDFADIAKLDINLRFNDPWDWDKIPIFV
Description: NADPH oxidation at […] nm, non-linear regression, substrate-inhibition model with Hill coefficient. The data set is classed as biochemical. The settings on record: NADPH as cofactor, Hill coefficient n = 3.51, 100 mM phosphate pH 7.0, 30 °C, unit of Ki not printed (Km in mM).

Substrate in the data set “purified protein”: O=Cc1ccc(CO)o1
The data set can be described thus: purified protein. The data set is classed as biochemical, Scheffersomyces stipitis. To be noted: NADPH as cofactor, substrate-inhibition model, 100 mM phosphate pH 7.0, 30 °C.

One may read the Km as the concentration of substrate that gives half-maximal velocity.

In turn, `O=Cc1ccc(CO)o1` [HMF] returned a Ki in data set [1] of 95.0.

B1: Pichia stipitis xylose reductase (Ps-XR) (Scheffersomyces stipitis CBS 6054) (protein)
chain: MPSIKLNSGYDMPAVGFGCWKVDVDTCSEQIYRAIKTGYRLFDGAEDYANEKLVGAGVKKAIDEGIVKREDLFLTSKLWNNYHHPDNVEKALNRTLSDLQVDYVDLFLIHFPVTFKFVPLEEKYPPGFYCGKGDNFDYEDVPILETWKALEKLVKAGKIRSIGVSNFPGALLLDLLRGATIKPSVLQVEHHPYLQQPRLIEFAQSRGIAVTAYSSFGPQSFVELNQGRALNTSPLFENETIKAIAAKHGKSPAQVLLRWSSQRGIAIIPKSNTVPRLLENKDVNSFDLDEQDFADIAKLDINLRFNDPWDWDKIPIFV
notes: XYL1 gene product overproduced in S. cerevisiae TMB3260 (PGK1p-XYL1); purified by Red-Sepharose and gel filtration; no tag mentioned
Consider B1, for which the Km in “purified protein” was determined as 40 mM.
